From patent US20240299353A1, “COMPOSITIONS AND METHODS FOR TREATING […] 5-MEO-DMT” (Alvarius Pharmaceuticals Ltd., priority 2021, published 2024)

Key:
[1] = system: rats; experiment: Pre-pulse inhibition of startle; format: in vivo; conditions: for treatment effects on PPI: cohort 1 (20 mg/kg 5-MeO-DMT)
Description: In this instance the animals were 9 weeks old at the initiation of drug exposures and we selected just the high (20 mg/kg) dose of 5-MeO-DMT from the molecular study. […] Due to the number of behavioral paradigms to be completed by each animal we divided the study into two cohorts staggered by two weeks with 8 animals coming from each cohort to make up the 16 animals for each treatment group. 23 hours after 5-MeO-DMT administration the animals were introduced to the open field arena where they were allowed to freely explore the area for 5 mins. Following the open field test (OFT) animals were returned to their home cage for 2 hours before beginning either the elevated plus maze (EPM) or pre-pulse inhibition (PPI) testing. 24 hours after completing the OFT animals were returned to the chamber for the first session in novel object (NO1) testing. The animals were returned to their home cage for 2 hours before beginning the EPM or PPI test. 24 hours after NO1 the animals returned to the open field chamber for the second session in novel object (N02) testing. After completing N02 animals were returned to their home cage for 2 hours before they underwent the forced swim test (FST) pre-test. 24 hours later the animals were returned to the FS cylinders for the FST. Upon completion of the FST all animals were euthanized. A timeline of this experimental cohort is described in FIG. 8A.
The experiment was conducted as described for cohort 1 for the first 13 days of injections. There are a number of notable differences in experimental procedures between the two cohorts of animals to be highlighted. […] Finally, the dose of 5-MeO-DMT was reduced to 10 mg/kg. The order and timing of all the behavioral paradigms were kept constant between the cohorts. A timeline of this experimental cohort is described in FIG. 8B. Additionally, 5-MeO-DMT administrations were staggered so animals could be observed for the duration of acute drug effects and to ensure recovery prior to the next animal being injected. The typical symptoms of psychedelic drug administration outlined above were reproduced in all animals administered 5-MeO-DMT.
The PPI protocol employed was based on a procedure previously described by Geyer and colleagues (Geyer, M. A., K. Krebs-Thomson, D. L. Braff & N. R. Swerdlow (2001) Pharmacological studies of prepulse inhibition models of sensorimotor gating deficits in schizophrenia: a decade in review. Psychopharmnacology, 156, 117-154). Each rat was restrained in an appropriately sized cylindrical holder that was placed on a movement-sensitive platform and maintained in a soundproof chamber. The animal was allowed to habituate to a white noise background of 70 dB for 5 mins before receiving 5 20 ms startle trials of 120 dB separated by randomized intervals of 10-20 s. Immediately thereafter, each rat received 5 separate presentations with one of the pre-pulse stimuli of 72, 76, 80, or 84 dB followed 100 ms later by the 120 dB acoustic startle stimulus. Each trial was separated by a time interval of 10-20 s. The 4 pre-pulse stimuli were delivered in a randomised manner and included periods in which there was no pre-pulse or startle stimulus. The session terminated with five further startle trials. Randomisation of the sound signals delivered and quantification of the startle movements were recorded from the movement-sensitive platform. Signals were integrated using the software supplied by the manufacturers of equipment hardware (MED-Associates Inc., St. Albans, VT, USA).

[2] = system: primary hippocampal neurons; experiment: Structural plasticity of cultured hippocampal neurons, Sholl analysis; format: cell-based, rat; conditions: for normalised AUC of the Sholl plot (dendritic arbor complexity): 24 h 5-MeO-DMT (20 μM) or cocaine (25 μM) alone, vs control; for maximum number of intersections (Nmax): FIG. 38C, all treatment groups
Excerpt: Primary Culture—Primary hippocampal neurons were derived from the hippocampi of embryonic day 18 (E18) rat embryos, as described previously (Seibenhener, M. L. & M. W. Wooten (2012) Isolation and Culture of Hippocampal Neurons from Prenatal Mice. Journal of Visualized Experiments: JoVE, 3634). Briefly, the brains were removed from the skull and stored in cooled Hank's Balanced Salt Solution (HBSS). The hippocampus was isolated under a dissection microscope and digested using 0.05% Trypsin (Gibco) in HBSS for 10 mins after which trypsinisation was stopped by the addition of 2% foetal calf serum (Gibco). Isolated cells were suspended in plating media and viable cells were counted with a haemocytometer using trypan blue (Gibco) staining. Cells were plated at a density of 1×10^6 cells/well on 12-well plates coated with 0.02% Poly-DL-ornithine hydrobromide (Sigma). After plating, cells were incubated at 37° C. in humidified air with 5% C02. Half medium changes were performed every 2-3 days with L-glutamic acid no longer included in the media after 3 DIV.
Immunocytochemistry—Primary hippocampal neurons grown on 18 mm diameter glass coverslips were fixed in 70% ethanol (EtOH) for 20 mins. After fixing, cells were permeabilised in 0.2% Triton X-100 (Thermo Fisher) in PBS and washed in PBS. Cells were blocked in 1% BSA (Sigma) in PBS for 45 mins. Following blocking, cells were incubated with primary antibodies in 5% BSA and 5% normal goat serum (Agilent) for 2 hours in a humidity chamber at room temperature or overnight at 4° C. Cells were rinsed in PBS and incubated with 1 ug/ml 4′,6-Diamidine-2′-phenylindole dihydrochloride (DAPI) (Thermo Fisher) for 10 mins. Coverslips were mounted on microscope slides using mounting medium containing mowiol 4-88 (Sigma), stored in the dark at 4° C. and were imaged within 7 days of mounting. Images were captured on a Zeiss AxioImager M1 fluorescent microscope using a x40 oil immersion lens. 10 images were taken per coverslip and images were analyzed by a customized R script (Appendix I) using EBImage by Bioconductor Ver 3.7. Briefly, DAPI staining was used as a nuclear reference with a threshold of a minimal radius and fluorescent intensity implemented to differentiate DAPI-labelled nuclei against cell debris or non-specific binding. A watershed command in the R script was used to ensure segmentation and identification of nuclei which may be tightly clustered as distinct objects. The nuclei were dilated using kernel expansion to designate the soma region surrounding the nucleus. A distance map was generated for each image which calculates the distance of each foreground pixel (white) to the nearest background pixel (black). Protein expression was measured as the average pixel fluorescence intensity for each cell in each channel. In all experiments cells were stained with an antibody for NeuN, a protein specifically expressed in neurons, to localise protein changes to the neuronal or non-neuronal cellular populations in the culture. Proteins assessed by ICC were 5-HT1AR (FIG. 7A), 5-HT2AR (FIG. 7B).
Primary hippocampal cultures were grown on 18 mm glass coverslips at a density of 1×10^6 cells as described. On 3 DIV all cells underwent a full medium change. […] On 4 DIV, all cells underwent a second full medium change. Cells in the combination group were treated with 2 μM 5-MeO-DMT for a further 24 hours with all other groups beginning a 24-hour treatment. After treatment was completed the cells were fixed and processed as described below.
After termination of drug treatment coverslips were processed and imaged as outlined for immunocytochemistry. In all instances NeuN antibody staining was used to visualize projections from the cell body. Images were analyzed using the Simple Neurite Tracer and Sholl analysis plug-ins for ImageJ Fiji. For the Sholl analysis circle radii of 2 μm increments were used. All images were taken and analyzed by an experimenter blinded to treatment conditions. […]

Compound	treatment effects on PPI [1]	percentage inhibition of startle with change in intensity of the pre-pulse ([1]; cohort 1, cocaine alone)	normalised AUC of the Sholl plot (dendritic arbor complexity) ([2]; FIG. 38B)	maximum number of intersections (Nmax) [2]	inhibition of the startle response at 80 dB or 84 dB relative to the 72 dB pre-pulse ([1]; cohort 1, 5-Meo-treated animals)	percentage inhibition of startle with change in intensity of the pre-pulse ([1]; cohort 1, cocaine+20 mg/kg 5-MeO-DMT combination)	PPI at the 80 dB pre-pulse ([1]; cohort 1, combination group relative to control and 5-MeO-DMT alone)	treatment effect on PPI ([1]; cohort 2 (10 mg/kg 5-MeO-DMT))	PPI at 84 dB relative to 72 dB pre-pulse ([1]; cohort 2, cocaine+10 mg/kg 5-MeO-DMT)	normalised AUC of the Sholl plot ([2]; FIG. 38B, 24 h cocaine followed by 24 h 5-MeO-DMT)	average neurite length ([2]; FIG. 38D, cocaine followed by 5-MeO-DMT)
COC(=O)[C@H]1[C@@H](OC(=O)c2ccccc2)C[C@@H]2CC[C@H]1N2C.Cl [cocaine, cocaine hydrochloride, reference compound]	no treatment effects on PPI	no change in percentage inhibition of startle	increase dendritic arbor complexity	unchanged between treatment groups							
COc1ccc2[nH]cc(CCN(C)C)c2c1 [5-MeO-DMT, 5-methoxy-N,N-dimethyltryptamine]	no treatment effects on PPI		increase dendritic arbor complexity	unchanged between treatment groups	significant increase in the inhibition of the startle response	no change in percentage inhibition of startle	significant attenuation of PPI	no treatment effect on PPI	significant increase in PPI	increased the normalised AUC relative to either compound alone	significantly increased the average neurite length relative to both the control and cocaine alone treatment groups
